According to patent US11560391B2, “Sulfonylurea compounds as inhibitors of interleukin-1 activity” (Genentech, Inc., priority 2018, dated 2023):

Tests used:
TNFα = TNFα levels of LPS and nigericin stimulated PBMCs (counter-screen); type: cell-based; conditions: Homo sapiens, PBMC; read-out: PMBC TNFα IC50
Method: Human peripheral blood mononuclear cells (PBMCs), consisting of lymphocytes (T, B and NK cells), monocytes and dendritic cells, are freshly isolated from human peripheral blood from healthy donors. Cells are obtained through an IRB approved donor program by iXCells Biotechnologies where all the donors are tested for bacterial and viral infections. Cells are purified from peripheral blood using ficoll gradient centrifugation.
Fresh or cryopreserved PMBCs are seeded in V-bottom 96-well plate at 0.5-1×10^5 cells per well and incubated overnight at 37° C. with 5% CO2 in RPMI 1640 medium with GlutaMAX supplement, 4.5 g/L D-glucose, 10% Fetal Bovine Serum (FBS), […] Sodium Pyruvate, 1% Penicillin/Streptomycin, 10 mM HEPES and 0.05 mM of […]. Freshly isolated or cryopreserved KCs cells are seeded in flat-bottom 96-well plates at 0.6-1.5×10^5 cells/well and incubated overnight at 37° C., 5% CO2 in RPMI 1640 Medium with GlutaMAX supplement, FBS, 1% Penicillin/Streptomycin and 10 mM HEPES. The following day, the cells are primed with 100 ng/mL of lipopolysaccharides (LPS; Sigma Aldrich) in FBS-free RPMI 1640 for 3 h. After the priming step, the media is removed and PBMCs are pre-incubated with serial concentrations of test compounds (0.00017-10 uM) or vehicle (DMSO) for 30 min in FBS-free media prior to addition of the NLRP3 activator. Cells are then stimulated with 10 μM Nigericin (Sigma Aldrich; InvivoGen) for 1.5 h. Plates were centrifuged at 1,500 rpm for 3 minutes to pellet cells and supernatant was transferred into new plates for subsequent experiments.
For ELISA assays cells are seeded into 96-well plates. Post study, supernatants are removed and the levels of mature IL-1β, IL18 and TNFα (Quantikine ELISA, R&D systems) are measured in cell conditioned media by ELISA according to manufacturer's instructions.
TNFα levels of LPS and nigericin stimulated cells are measured by HTRF assay (Cisbio, Bedford, Mass.). […] Measuring TNFalpha production also serves as a technical counter-screen to eliminate compounds that interfere with the HTRF reagents. Thus compounds that inhibit both IL-1β and TNFα levels are triaged for either being non-selective for inflammasome or interfering with the HTRF readout.

THP-1 ASC-GFP cells = assay: THP-1 ASC-GFP speck assay (NLRP3 inflammasome activation, nigericin); type: cell-based; conditions: THP1-ASC-GFP; PMA-differentiated, LPS primed, 10 μM nigericin
How it was run: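 PMA-differentiated (500 ng/ml, overnight) THP-1 ASC-GFP cells primed with LPS 1 μg/mL for 3 h, pre-treated 30 min with compound (20-point, 2-fold from 40 μM), then nigericin 10 μM for 90 min. After fixation, imaging gives % cells with ASC-GFP specks against Hoechst-counted nuclei.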

NLRP3 inflammasome = target: T1, NLRP3 inflammasome (Homo sapiens, UniProt Q96P20); assay: NLRP3 inflammasome activation assay in LPS-primed, nigericin-stimulated PBMCs, IL-1β release; type: cell-based; conditions: PBMC, LPS priming, 10 μM nigericin; read-out: PMBC IL-1β IC50
T1 construct: freshly isolated from human peripheral blood from healthy donors; StemCells Technologies; host or cells: primary human PBMCs
How it was run: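 Fresh or cryopreserved human PBMCs primed with 100 ng/mL LPS for 3 h, pre-incubated 30 min with compound (0.00017-10 uM, or 2-fold 20-point series from 40 μM), then stimulated with 10 μM nigericin for 1.5 h at 37 °C. Supernatant IL-1β measured by ELISA or by HTRF (665/620 ratio).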

PBMCs = assay: CTG (CellTiter-Glo) viability assay of compound-treated LPS and nigericin stimulated PBMCs; type: cell-based, human; conditions: Homo sapiens, PBMC; read-out: PMBC CTG IC50
How it was run: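 Human PBMCs primed with 100 ng/mL LPS for 3 h, pre-incubated 30 min with compound (0.00017–10 uM) in FBS-free medium, then stimulated with 10 μM nigericin for 1.5 h. Viability read by CellTiter-Glo ATP luminescence as a cytotoxicity counter-screen.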

T1 sequence (Q96P20 whole entry): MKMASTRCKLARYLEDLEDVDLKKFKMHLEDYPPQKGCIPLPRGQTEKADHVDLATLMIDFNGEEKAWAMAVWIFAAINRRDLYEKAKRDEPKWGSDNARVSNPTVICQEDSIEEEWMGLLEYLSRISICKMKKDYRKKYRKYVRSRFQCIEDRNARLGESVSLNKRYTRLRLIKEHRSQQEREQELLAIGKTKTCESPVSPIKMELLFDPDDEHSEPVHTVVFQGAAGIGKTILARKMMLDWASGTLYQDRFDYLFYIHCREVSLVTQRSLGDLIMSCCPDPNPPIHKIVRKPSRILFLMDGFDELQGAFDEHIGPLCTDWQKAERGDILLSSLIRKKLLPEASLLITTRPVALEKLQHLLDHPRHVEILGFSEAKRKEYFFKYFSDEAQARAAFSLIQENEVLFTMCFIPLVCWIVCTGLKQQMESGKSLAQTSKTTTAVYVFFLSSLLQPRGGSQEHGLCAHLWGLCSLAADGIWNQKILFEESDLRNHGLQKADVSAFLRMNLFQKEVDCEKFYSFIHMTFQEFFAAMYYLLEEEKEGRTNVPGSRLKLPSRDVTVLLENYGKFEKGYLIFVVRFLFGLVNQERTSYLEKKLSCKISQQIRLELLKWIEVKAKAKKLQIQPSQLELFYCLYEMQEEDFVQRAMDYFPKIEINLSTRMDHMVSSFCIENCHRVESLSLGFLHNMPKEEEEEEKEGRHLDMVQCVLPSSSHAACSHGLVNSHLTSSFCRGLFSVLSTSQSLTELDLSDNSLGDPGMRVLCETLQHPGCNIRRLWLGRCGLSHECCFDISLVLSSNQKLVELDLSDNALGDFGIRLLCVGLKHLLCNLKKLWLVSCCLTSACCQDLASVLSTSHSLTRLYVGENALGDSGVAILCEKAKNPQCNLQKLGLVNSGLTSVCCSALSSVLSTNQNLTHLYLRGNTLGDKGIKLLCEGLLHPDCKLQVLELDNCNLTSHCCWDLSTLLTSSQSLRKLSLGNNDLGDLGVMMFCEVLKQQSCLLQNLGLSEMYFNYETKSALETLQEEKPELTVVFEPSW

| IC50 (THP-1 ASC-GFP cells) [nM] | IC50 (NLRP3 inflammasome) [nM] | Structure (SMILES) | IC50 (TNFα) [nM] | IC50 (PBMCs) [nM] |
| --- | --- | --- | --- | --- |
| 500 | 790 | COc1cc(C(C)C)c(NC(=O)NS(=O)(=O)c2cnn3c2OC[C@@H](N(C)C)C3)c(C(C)C)n1 [Example 52a, (S)—N-((2,4-diisopropyl-6-methoxypyridin-3-yl)carbamoyl)-6-(dimethylamino)-6,7-dihydro-5H-pyrazolo[5,1-b][1,3]oxazine-3-sulfonamide] | > 10000 | 390 |
| 3300 | 3400 | CNc1cc(C(C)C)c(NC(=O)NS(=O)(=O)c2cnn3c2OCCC3)c(C(C)C)n1 [Example 53, N-((2,4-diisopropyl-6-(methylamino)pyridin-3-yl)carbamoyl)-6,7-dihydro-5H-pyrazolo[5,1-b][1,3]oxazine-3-sulfonamide] | > 10000 | 880 |
| 620 | 320 | CC(C)c1cc(C(F)(F)F)nc(C(C)C)c1NC(=O)NS(=O)(=O)c1cnn2c1OCCC2 [Example 54, N-((2,4-diisopropyl-6-(trifluoromethyl)pyridin-3-yl)carbamoyl)-6,7-dihydro-5H-pyrazolo[5,1-b][1,3]oxazine-3-sulfonamide] | > 10000 | 16 |
